# Laboratory results as given in ChEMBL document CHEMBL2434896, “Carbonic anhydrase inhibitors. Synthesis of heterocyclic 4-substituted pyridine-3-sulfonamide derivatives and their inhibition of the human cytosolic isozymes I and II and transmembrane tumor-associated isozymes IX and XII” (Eur J Med Chem, 2013).
# Active and inactive are the calls of the source. No cut-off for these calls is given here.
# Legend:
# SNB-75 = experiment: Growth inhibition of human SNB75 cells at 10 uM after 48 hrs by sulforhodamine B assay; type: functional; conditions: SNB-75, 48 h, read-out: GI
# SK-MEL-5 = experiment: Growth inhibition of human SK-MEL-5 cells at 10 uM after 48 hrs by sulforhodamine B assay; type: functional
# NCI-H226 = experiment: Growth inhibition of human NCI-H226 cells at 10 uM after 48 hrs by sulforhodamine B assay; type: functional
# MDA-MB-435 = experiment: Growth inhibition of human MDA-MB-435 cells at 10 uM after 48 hrs by sulforhodamine B assay; type: functional
# IGROV-1 = experiment: Growth inhibition of human IGROV1 cells at 10 uM after 48 hrs by sulforhodamine B assay; type: functional
# HCT-116 = experiment: Growth inhibition of human HCT116 cells at 10 uM after 48 hrs by sulforhodamine B assay; type: functional; conditions: HCT-116, 48 h, read-out: GI
# LOX IMVI = experiment: Growth inhibition of human LOXIMVI cells at 10 uM after 48 hrs by sulforhodamine B assay; type: functional
# SW-620 = experiment: Growth inhibition of human SW620 cells at 10 uM after 48 hrs by sulforhodamine B assay; type: functional
# MOLT-4 = experiment: Growth inhibition of human MOLT4 cells at 10 uM after 48 hrs by sulforhodamine B assay; type: functional; conditions: MOLT-4, 48 h, read-out: GI
# NCI/ADR-RES = experiment: Growth inhibition of human NCI-ADR-RES cells at 10 uM after 48 hrs by sulforhodamine B assay; type: functional
# Malme-3M = experiment: Growth inhibition of human MALME-3M cells at 10 uM after 48 hrs by sulforhodamine B assay; type: functional; conditions: read-out: GI
# OVCAR-4 = experiment: Growth inhibition of human OVCAR4 cells at 10 uM after 48 hrs by sulforhodamine B assay; type: functional
# NCI-H522 = experiment: Growth inhibition of human NCI-H522 cells at 10 uM after 48 hrs by sulforhodamine B assay; type: functional; conditions: NCI-H522, 48 h, read-out: GI
# A498 = experiment: Growth inhibition of human A498 cells at 10 uM after 48 hrs by sulforhodamine B assay; type: functional
# NCI-H322M = experiment: Growth inhibition of human NCI-H322M cells at 10 uM after 48 hrs by sulforhodamine B assay; type: functional
# HT-29 = experiment: Growth inhibition of human HT-29 cells at 10 uM after 48 hrs by sulforhodamine B assay; type: functional
# MCF7 = experiment: Growth inhibition of human MCF7 cells at 10 uM after 48 hrs by sulforhodamine B assay; type: functional
# KM12 = experiment: Growth inhibition of human KM12 cells at 10 uM after 48 hrs by sulforhodamine B assay; type: functional
# Hs-578T = experiment: Growth inhibition of human Hs 578T cells at 10 uM after 48 hrs by sulforhodamine B assay; type: functional
# HCT-15 = experiment: Growth inhibition of human HCT15 cells at 10 uM after 48 hrs by sulforhodamine B assay; type: functional
# ACHN = experiment: Growth inhibition of human ACHN cells at 10 uM after 48 hrs by sulforhodamine B assay; type: functional
# OVCAR-5 = experiment: Growth inhibition of human OVCAR5 cells at 10 uM after 48 hrs by sulforhodamine B assay; type: functional
# CAKI-1 = experiment: Growth inhibition of human CAKI-1 cells at 10 uM after 48 hrs by sulforhodamine B assay; type: functional; conditions: CAKI-1, 48 h, read-out: GI
# SN12C = experiment: Growth inhibition of human SN12C cells at 10 uM after 48 hrs by sulforhodamine B assay; type: functional
# SF-539 = experiment: Growth inhibition of human SF539 cells at 10 uM after 48 hrs by sulforhodamine B assay; type: functional; conditions: SF-539, 48 h, read-out: GI
# PC-3 = experiment: Growth inhibition of human PC3 cells at 10 uM after 48 hrs by sulforhodamine B assay; type: functional
# SR = experiment: Growth inhibition of human SR cells at 10 uM after 48 hrs by sulforhodamine B assay; type: functional; conditions: read-out: GI
# MDA-MB-468 = experiment: Growth inhibition of human MDA-MB-468 cells at 10 uM after 48 hrs by sulforhodamine B assay; type: functional
# RPMI-8226 = experiment: Growth inhibition of human RPMI8226 cells at 10 uM after 48 hrs by sulforhodamine B assay; type: functional; conditions: RPMI-8226, 48 h, read-out: GI
# OVCAR-3 = experiment: Growth inhibition of human OVCAR3 cells at 10 uM after 48 hrs by sulforhodamine B assay; type: functional
# SK-MEL-28 = experiment: Growth inhibition of human SK-MEL-28 cells at 10 uM after 48 hrs by sulforhodamine B assay; type: functional, cell-based
# BT-549 = experiment: Growth inhibition of human BT549 cells at 10 uM after 48 hrs by sulforhodamine B assay; type: functional; conditions: BT-549, 48 h, read-out: GI
# NCI-H23 = experiment: Growth inhibition of human NCI-H23 cells at 10 uM after 48 hrs by sulforhodamine B assay; type: functional
# UO-31 = experiment: Growth inhibition of human UO31 cells at 10 uM after 48 hrs by sulforhodamine B assay; type: functional; conditions: UO-31, 48 h, read-out: GI
# CCRF-CEM = experiment: Growth inhibition of human CCRF-CEM cells at 10 uM after 48 hrs by sulforhodamine B assay; type: functional; conditions: read-out: GI
# DU-145 = experiment: Growth inhibition of human DU145 cells at 10 uM after 48 hrs by sulforhodamine B assay; type: functional
# COLO 205 = experiment: Growth inhibition of human COLO205 cells at 10 uM after 48 hrs by sulforhodamine B assay; type: functional
# HCC 2998 = experiment: Growth inhibition of human HCC2998 cells at 10 uM after 48 hrs by sulforhodamine B assay; type: functional
# MDA-MB-231 = experiment: Growth inhibition of human MDA-MB-231 cells at 10 uM after 48 hrs by sulforhodamine B assay; type: functional
# T47D = experiment: Growth inhibition of human T47D cells at 10 uM after 48 hrs by sulforhodamine B assay; type: functional; conditions: read-out: GI
# NCI-H460 = experiment: Growth inhibition of human NCI-H460 cells at 10 uM after 48 hrs by sulforhodamine B assay; type: functional
# TK-10 = experiment: Growth inhibition of human TK10 cells at 10 uM after 48 hrs by sulforhodamine B assay; type: functional
# HL-60(TB) = experiment: Growth inhibition of human HL-60(TB) cells at 10 uM after 48 hrs by sulforhodamine B assay; type: functional; conditions: HL-60, 48 h, read-out: GI
# [1] = Growth inhibition of human EKVX cells at 10 uM after 48 hrs by sulforhodamine B assay; type: functional; conditions: read-out: GI
# Carbonic anhydrase 9 = Carbonic anhydrase 9 (Homo sapiens, UniProt Q16790); experiment: Inhibition of human carbonic anhydrase 9 after 15 mins by stopped flow CO2 hydration assay
# SK-MEL-2 = experiment: Growth inhibition of human SK-MEL-2 cells at 10 uM after 48 hrs by sulforhodamine B assay; type: functional
# HOP-92 = experiment: Growth inhibition of human HOP92 cells at 10 uM after 48 hrs by sulforhodamine B assay; type: functional
# K562 = experiment: Growth inhibition of human K562 cells at 10 uM after 48 hrs by sulforhodamine B assay; type: functional
# SF-295 = experiment: Growth inhibition of human SF295 cells at 10 uM after 48 hrs by sulforhodamine B assay; type: functional; conditions: SF-295, 48 h, read-out: GI
# SNB-19 = experiment: Growth inhibition of human SNB19 cells at 10 uM after 48 hrs by sulforhodamine B assay; type: functional
# HOP-62 = experiment: Growth inhibition of human HOP62 cells at 10 uM after 48 hrs by sulforhodamine B assay; type: functional
# M14 = experiment: Growth inhibition of human M14 cells at 10 uM after 48 hrs by sulforhodamine B assay; type: functional
# 786-0 = experiment: Growth inhibition of human 786-0 cells at 10 uM after 48 hrs by sulforhodamine B assay; type: functional
# SK-OV-3 = experiment: Growth inhibition of human SKOV3 cells at 10 uM after 48 hrs by sulforhodamine B assay; type: functional
# RXF 393 = experiment: Growth inhibition of human RXF393 cells at 10 uM after 48 hrs by sulforhodamine B assay; type: functional
# SF-268 = experiment: Growth inhibition of human SF268 cells at 10 uM after 48 hrs by sulforhodamine B assay; type: functional
# UACC-62 = experiment: Growth inhibition of human UACC62 cells at 10 uM after 48 hrs by sulforhodamine B assay; type: functional
smiles,measurement,setting,value
NS(=O)(=O)c1cnccc1N1CCN(c2ccccc2)CC1,inhibition of growth at 10 µM,SNB-75,1%
same,growth inhibition (GI),SK-MEL-5,inactive
same,growth inhibition (GI),NCI-H226,inactive
same,growth inhibition (GI),MDA-MB-435,inactive
same,growth inhibition (GI),IGROV-1,inactive
same,inhibition of growth at 10 µM,HCT-116,1%
same,growth inhibition (GI),LOX IMVI,inactive
same,growth inhibition (GI),SW-620,inactive
same,inhibition of growth at 10 µM,MOLT-4,5%
same,growth inhibition (GI),NCI/ADR-RES,inactive
same,inhibition of growth at 10 µM,Malme-3M,8%
same,growth inhibition (GI),OVCAR-4,inactive
same,inhibition of growth at 10 µM,NCI-H522,1%
same,growth inhibition (GI),A498,inactive
same,growth inhibition (GI),NCI-H322M,inactive
same,growth inhibition (GI),HT-29,inactive
same,growth inhibition (GI),MCF7,inactive
same,growth inhibition (GI),KM12,inactive
same,growth inhibition (GI),Hs-578T,inactive
same,growth inhibition (GI),HCT-15,inactive
same,growth inhibition (GI),ACHN,inactive
same,growth inhibition (GI),OVCAR-5,inactive
same,inhibition of growth at 10 µM,CAKI-1,8%
same,growth inhibition (GI),SN12C,inactive
same,inhibition of growth at 10 µM,SF-539,3%
same,growth inhibition (GI),PC-3,inactive
same,inhibition of growth at 10 µM,SR,8%
same,growth inhibition (GI),MDA-MB-468,inactive
same,inhibition of growth at 10 µM,RPMI-8226,10%
same,growth inhibition (GI),OVCAR-3,inactive
same,growth inhibition (GI),SK-MEL-28,inactive
same,inhibition of growth at 10 µM,BT-549,4%
same,growth inhibition (GI),NCI-H23,inactive
same,inhibition of growth at 10 µM,UO-31,14%
same,inhibition of growth at 10 µM,CCRF-CEM,7%
same,growth inhibition (GI),DU-145,inactive
same,growth inhibition (GI),COLO 205,inactive
same,growth inhibition (GI),HCC 2998,inactive
same,growth inhibition (GI),MDA-MB-231,inactive
same,inhibition of growth at 10 µM,T47D,1%
same,growth inhibition (GI),NCI-H460,inactive
same,growth inhibition (GI),TK-10,inactive
same,inhibition of growth at 10 µM,HL-60(TB),2%
same,inhibition of growth at 10 µM,[1],4%
same,Ki,Carbonic anhydrase 9,124 nM
same,growth inhibition (GI),SK-MEL-2,inactive
same,growth inhibition (GI),HOP-92,inactive
same,growth inhibition (GI),K562,inactive
same,inhibition of growth at 10 µM,SF-295,4%
same,growth inhibition (GI),SNB-19,inactive
same,growth inhibition (GI),HOP-62,inactive
same,growth inhibition (GI),M14,inactive
same,growth inhibition (GI),786-0,inactive
same,growth inhibition (GI),SK-OV-3,inactive
same,growth inhibition (GI),RXF 393,inactive
same,growth inhibition (GI),SF-268,inactive
same,growth inhibition (GI),UACC-62,inactive
